Data as given in patent US8445539B2, “Alpha-aminoamide derivatives useful in the treatment of psychiatric disorders” (priority 2007, dated 2013).

Experiments:
[1] = system: MK-801 induced hyperlocomotion; assay: MK-801 induced hyperlocomotion in mice; type: in vivo; conditions: MK-801 induced locomotion in mice
Protocol: Glutamate N-methyl-D-aspartate (NMDA) receptor antagonists, like phencyclidine (PCP) or MK-801, elicit schizophrenia-like symptoms in humans and behavioural abnormalities in animals, such as hyperactivity. Atypical antipsychotics decrease hyperlocomotion produced in mice by MK-801 or PCP and this represents a commonly used animal models predictive of efficacy against the symptoms of schizophrenia. Vehicle or compound was injected 30-35 min before the animal entered the activity chambers. Hyperlocomotion was produced in mice by administration of MK-801 (0.3 mg/kg) 15 min before the animal entered the activity chambers (i.e., […] min after vehicle or compound administration) and the total distance traveled in centimeters was determined during a 15-30 min session. The increase in MK-801-induced total distance traveled were attenuated by active compounds.

Dopamine D4.2 = assay: Dopamine receptor radioligand binding assay; conditions: inhibition of specific binding
Protocol: (§1) The assays were performed, under standard conditions, as described in the following publications: Dearry A et al., Nature; 1990; 347: 72-76; Bunzow J R et al., Nature; 1988; 336: 783-787; Sokoloff P. et al., Nature; 1990; 347: 146-151; Van Tol H H M et al., Nature; 1991; 350: 610-614; Van Tol H H M et al., Nature; 1992; 358: 149-152; Sibley D R et al., Trend Pharmacol. Sci.; 1992; 13:61-69.
(§2) Biochemical assay results are presented as the percent inhibition of specific bindings at a single compound concentration. Responses are considered significant for binding activities >50%.

Dopamine D4.4 = molecular target: T1, Dopamine D4.4 (Homo sapiens, UniProt P21917); assay: Dopamine receptor radioligand binding assay; conditions: inhibition of specific binding
T1 sequence (P21917 1-419): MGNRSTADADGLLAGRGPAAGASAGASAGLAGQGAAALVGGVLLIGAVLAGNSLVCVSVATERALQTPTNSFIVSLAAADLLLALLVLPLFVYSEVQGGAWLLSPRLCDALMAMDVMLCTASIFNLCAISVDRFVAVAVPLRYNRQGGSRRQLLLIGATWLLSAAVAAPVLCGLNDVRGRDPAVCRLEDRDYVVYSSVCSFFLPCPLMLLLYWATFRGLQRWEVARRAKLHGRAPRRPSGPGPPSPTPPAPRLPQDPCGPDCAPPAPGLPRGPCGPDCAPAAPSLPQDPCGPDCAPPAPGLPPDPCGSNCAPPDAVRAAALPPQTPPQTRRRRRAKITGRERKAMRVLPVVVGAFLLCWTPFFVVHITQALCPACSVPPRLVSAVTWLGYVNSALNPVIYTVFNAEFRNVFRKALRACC
Protocol: as §1, §2

Dopamine D4.7 = assay: Dopamine receptor radioligand binding assay; conditions: inhibition of specific binding
Protocol: as §1, §2

Dopamine D1 = Dopamine D1 (Homo sapiens, UniProt P21728); assay: Dopamine receptor radioligand binding assay; conditions: inhibition of specific binding
Protocol: as §1, §2

Dopamine D2S = Dopamine D2S (Homo sapiens, UniProt P14416); assay: Dopamine receptor radioligand binding assay; conditions: inhibition of specific binding
Protocol: as §1, §2

Dopamine D2L = Dopamine D2L (Homo sapiens, UniProt P14416); assay: Dopamine receptor radioligand binding assay; conditions: inhibition of specific binding
Protocol: as §1, §2

Dopamine D3 = Dopamine D3 (Homo sapiens, UniProt P35462); assay: Dopamine receptor radioligand binding assay; conditions: inhibition of specific binding
Protocol: as §1, §2

Dopamine D5 = Dopamine D5 (Homo sapiens, UniProt P21918); assay: Dopamine receptor radioligand binding assay; conditions: inhibition of specific binding
Protocol: as §1, §2

Chain of Dopamine D1 (P21728 whole entry): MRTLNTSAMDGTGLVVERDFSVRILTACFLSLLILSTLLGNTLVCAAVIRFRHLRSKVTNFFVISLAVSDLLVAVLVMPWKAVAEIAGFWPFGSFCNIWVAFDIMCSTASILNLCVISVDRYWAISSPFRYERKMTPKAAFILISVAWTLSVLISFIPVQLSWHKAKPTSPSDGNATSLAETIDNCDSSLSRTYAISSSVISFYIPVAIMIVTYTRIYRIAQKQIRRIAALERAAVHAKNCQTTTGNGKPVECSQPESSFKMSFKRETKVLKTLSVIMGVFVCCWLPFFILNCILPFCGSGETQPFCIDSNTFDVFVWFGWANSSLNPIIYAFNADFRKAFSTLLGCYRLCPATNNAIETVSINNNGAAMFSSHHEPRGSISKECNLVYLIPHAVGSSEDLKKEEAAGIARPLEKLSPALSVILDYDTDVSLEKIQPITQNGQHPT
Chain of Dopamine D2L (P14416 whole entry): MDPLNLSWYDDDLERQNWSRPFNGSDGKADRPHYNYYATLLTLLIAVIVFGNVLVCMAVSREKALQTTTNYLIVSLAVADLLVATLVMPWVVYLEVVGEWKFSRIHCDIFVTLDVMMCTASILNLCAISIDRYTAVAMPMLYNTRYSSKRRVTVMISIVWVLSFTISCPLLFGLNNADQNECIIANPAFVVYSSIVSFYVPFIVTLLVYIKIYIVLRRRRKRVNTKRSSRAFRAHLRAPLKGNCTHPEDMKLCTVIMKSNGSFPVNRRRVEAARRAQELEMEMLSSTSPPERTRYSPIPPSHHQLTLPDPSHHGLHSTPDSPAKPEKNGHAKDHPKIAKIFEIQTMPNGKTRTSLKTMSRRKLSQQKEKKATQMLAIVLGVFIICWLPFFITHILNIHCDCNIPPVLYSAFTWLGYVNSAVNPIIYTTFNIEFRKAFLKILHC
Chain of Dopamine D2S (P14416 1-414 isoform P14416-2): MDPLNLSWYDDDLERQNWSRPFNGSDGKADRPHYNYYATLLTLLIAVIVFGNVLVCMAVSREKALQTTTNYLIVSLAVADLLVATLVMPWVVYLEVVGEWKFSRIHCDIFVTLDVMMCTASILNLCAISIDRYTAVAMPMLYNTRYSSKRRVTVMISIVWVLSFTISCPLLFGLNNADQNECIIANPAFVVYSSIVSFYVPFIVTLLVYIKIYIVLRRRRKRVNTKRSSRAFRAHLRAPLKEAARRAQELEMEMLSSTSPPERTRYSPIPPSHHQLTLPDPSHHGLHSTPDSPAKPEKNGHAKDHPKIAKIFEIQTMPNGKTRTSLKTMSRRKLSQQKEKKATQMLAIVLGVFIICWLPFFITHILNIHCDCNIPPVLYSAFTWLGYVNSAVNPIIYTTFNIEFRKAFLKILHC
Chain of Dopamine D5 (P21918 whole entry): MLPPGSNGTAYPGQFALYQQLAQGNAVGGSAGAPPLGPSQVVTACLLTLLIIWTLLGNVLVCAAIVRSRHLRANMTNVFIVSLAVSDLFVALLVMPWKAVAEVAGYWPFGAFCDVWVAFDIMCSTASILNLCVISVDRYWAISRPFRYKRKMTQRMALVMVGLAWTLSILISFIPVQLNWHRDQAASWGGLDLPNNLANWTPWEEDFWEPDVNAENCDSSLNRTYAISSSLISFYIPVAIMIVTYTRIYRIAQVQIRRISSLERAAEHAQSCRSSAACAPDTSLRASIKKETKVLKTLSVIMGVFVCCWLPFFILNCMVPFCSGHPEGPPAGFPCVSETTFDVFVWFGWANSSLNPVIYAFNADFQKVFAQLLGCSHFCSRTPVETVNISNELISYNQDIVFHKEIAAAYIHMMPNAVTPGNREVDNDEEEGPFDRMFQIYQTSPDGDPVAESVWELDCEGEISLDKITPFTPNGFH
Chain of Dopamine D3 (P35462 whole entry): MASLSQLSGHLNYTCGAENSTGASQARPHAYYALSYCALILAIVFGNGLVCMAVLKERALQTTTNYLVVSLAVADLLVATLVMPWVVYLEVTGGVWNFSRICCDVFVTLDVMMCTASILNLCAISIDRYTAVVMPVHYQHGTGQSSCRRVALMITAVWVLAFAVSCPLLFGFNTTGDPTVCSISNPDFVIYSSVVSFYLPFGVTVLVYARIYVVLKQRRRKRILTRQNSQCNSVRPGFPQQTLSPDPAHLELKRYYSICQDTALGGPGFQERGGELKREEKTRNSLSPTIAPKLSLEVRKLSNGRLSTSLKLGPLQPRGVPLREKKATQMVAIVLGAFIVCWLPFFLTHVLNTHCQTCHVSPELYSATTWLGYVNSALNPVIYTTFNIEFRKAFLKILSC

SMILES: C[C@H](NCc1ccc(OCc2ccccc2F)cc1)C(N)=O [Ralfinamide methanesulfonate, (S)-(+)-2-[4-(2-fluorobenzyloxy)benzylamino]propanamide]
- Activity in schizophrenia animal model (Example 5) [1]: active
- % Inhibition at 10 μm (Dopamine D4.2): 1%
- % Inhibition at 10 μm (Dopamine D4.4): no inhibition
- % Inhibition at 10 μm (Dopamine D4.7): no inhibition
- % Inhibition at 10 μm (Dopamine D1): no inhibition
- % Inhibition at 10 μm (Dopamine D2S): no inhibition
- % Inhibition at 10 μm (Dopamine D2L): no inhibition
- % Inhibition at 10 μm (Dopamine D3): 7%
- % Inhibition at 10 μm (Dopamine D5): no inhibition
